In patent US20260193249A1, “PREPARATION OF PYRAZOLOPYRIDINE AND TRIAZOLOPYRIDINE DERIVATIVES AS NOVEL DIACYLGLYCERIDE O-ACYLTRANSFERASE 2 INHIBITORS” (Merck Sharp & Dohme LLC, priority 2022, published 2026):

Biological target: T1, human DGAT2 (Homo sapiens, UniProt Q96PD7)
T1 construct: made in house; host or cells: Sf-9 insect cells (baculovirus), membrane fraction
T1 sequence (Q96PD7 1-388): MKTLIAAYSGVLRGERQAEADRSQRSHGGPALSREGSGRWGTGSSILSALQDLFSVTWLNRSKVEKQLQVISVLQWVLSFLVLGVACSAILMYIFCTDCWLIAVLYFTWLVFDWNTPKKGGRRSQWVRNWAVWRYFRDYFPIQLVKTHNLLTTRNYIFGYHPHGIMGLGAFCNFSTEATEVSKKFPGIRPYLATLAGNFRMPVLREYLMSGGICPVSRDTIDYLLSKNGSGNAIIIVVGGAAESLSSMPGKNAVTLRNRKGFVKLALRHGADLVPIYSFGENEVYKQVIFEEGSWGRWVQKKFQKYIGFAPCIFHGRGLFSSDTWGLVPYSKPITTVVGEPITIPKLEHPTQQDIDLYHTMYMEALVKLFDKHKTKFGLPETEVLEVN
Test: DGAT2 Enzymatic Activity Assay
Type: biochemical
Details: membrane prep of Sf-9 insect cells expressing hDGAT2; 13C18-triolein product by LC/MS/MS; 25 μM diolein, 5 μM 13C oleoyl-CoA
Protocol: Sf-9 insect cells were maintained in Grace's insect cell culture medium with 10% heated-inactivated fetal bovine serum, 1% Pluronic F-68 and 0.14 μg/ml Kanamycine sulfate at 27° C. in a shaker incubator. After infection with untagged baculovirus expressing human DGAT2 (hDGAT2) at multiplicity of infection (MOI) 3 for 48 hours, cells were harvested. Cell pellets were suspended in buffer containing 10 mM Tris-HCl pH 7.5, 1 mM EDTA, 250 mM sucrose and Complete Protease Inhibitor Cocktail (Sigma Aldrich), and sonicated on ice. Cell debris were removed by centrifugation at 2000×g for 15 minutes. Membrane fractions were isolated by ultracentrifugation (100,000×g), resuspended in the same buffer, and frozen (−80° C.) for later use. The protein concentration was determined with the Pierce™ BCA Protein Assay Kit (Thermo Fisher Scientific).
LC/MS/MS analyses were performed using Thermal Fisher's LX4-TSQ Vantage system. This system consists of an Agilent binary high-performance liquid chromatography (HPLC) pump and a TSQ Vantage triple quadrupole MS/MS instrument. For each sample, 2 μL samples from the top organic layer of in-plate liquid-liquid extraction were injected onto a Thermo Betabasic C4 column (2.1 mm×20 mm, 5 μm particle size). The samples were then eluted using the following conditions; mobile phase: Isopropanol:acetonitrile/10 mM ammonium formate=50/35/15 (v/v/v), flow rate: 0.8 mL/min, temperature: 25° C. Data was acquired in positive mode using a heated electrospray ionization (HESI) interface. […] The peak area was integrated by Xcalibur Quan software. The ratio between the ^13C18triolein generated in the reaction and spiked in internal standard ^13C21-triolein was used to generate percentage inhibition and IC50 values. Compound percentage inhibition was calculated by the following formula: Inhibition %=1−[(compound response−low control)/(high control−low control)]×100%.
DGAT2 activity was determined by measuring the amount of enzymatic product ^13C18-triolein (^13C-1,2,3-Tri(cis-9-octadecenoyl)glycerol) using the membrane prep mentioned above. The assay was carried out in ABgene 384-well assay plates in a final volume of 25 μL at rt.

SMILES | IC50
CN1C(C)(C)C(NC(=O)c2cc3cc(Oc4ncccc4OCC(F)(F)F)ccn3n2)CS1(=O)=O (racemic) [Example 2, 5-((3-(2,2,2-Trifluoroethoxy)pyridin-2-yl)oxy)-N-(2,3,3-trimethyl-1,1-dioxidoisothiazolidin-4-yl)pyrazolo[1,5-a]pyridine-2-carboxamide] | 787 nM
CC1(NC(=O)c2cc3cc(Oc4ncccc4OCC(F)(F)F)ccn3n2)CCS(=O)(=O)CC1 [Example 1, N-(4-Methyl-1,1-dioxidotetrahydro-2H-thiopyran-4-yl)-5-((3-(2,2,2-trifluoroethoxy)pyridin-2-yl)oxy)pyrazolo[1,5-a]pyridine-2-carboxamide] | 9.7 nM
CC(C)(CNS(C)(=O)=O)NC(=O)c1cc2cc(Oc3ncccc3OCC(F)(F)F)ccn2n1 [Example 3, N-(2-Methyl-1-(methylsulfonamido)propan-2-yl)-5-((3-(2,2,2-trifluoroethoxy)pyridin-2-yl)oxy)pyrazolo[1,5-a]pyridine-2-carboxamide] | 694 nM
O=C(NC1CCCN(CC(F)(F)F)C1=O)c1cc2cc(Oc3ncccc3OCC(F)(F)F)ccn2n1 (stereo not shown) [Example 4, N-(2-Oxo-1-(2,2,2-trifluoroethyl)piperidin-3-yl)-5-((3-(2,2,2-trifluoroethoxy)pyridin-2-yl)oxy)pyrazolo[1,5-a]pyridine-2-carboxamide] | 309 nM
CC1(NC(=O)c2cc3cc(Oc4ncccc4OCC(F)(F)F)ccn3n2)CS(=O)(=O)C1 [Example 5, N-(3-Methyl-1,1-dioxidothietan-3-yl)-5-((3-(2,2,2-trifluoroethoxy)pyridin-2-yl)oxy)pyrazolo[1,5-a]pyridine-2-carboxamide] | 149 nM
O=C(N[C@H]1CCOC1)c1cc2cc(Oc3ncccc3OCC(F)(F)F)ccn2n1 [Example 6, (S)-N-(Tetrahydrofuran-3-yl)-5-((3-(2,2,2-trifluoroethoxy)pyridin-2-yl)oxy)pyrazolo[1,5-a]pyridine-2-carboxamide] | > 9990 nM
O=C(NC1CCCC1)c1cc2cc(Oc3ncccc3OCC(F)(F)F)ccn2n1 [Example 7, N-Cyclopentyl-5-((3-(2,2,2-trifluoroethoxy)pyridin-2-yl)oxy)pyrazolo[1,5-a]pyridine-2-carboxamide] | 1070 nM
C[C@@]1(NC(=O)c2cc3cc(Oc4nccnc4OCC(F)F)ccn3n2)CCS(=O)(=O)C1 [Example 8, (R)-5-((3-(2,2-Difluoroethoxy)pyrazin-2-yl)oxy)-N-(3-methyl-1,1-dioxidotetrahydrothiophen-3-yl)pyrazolo[1,5-a]pyridine-2-carboxamide] | 211 nM
CC1(NC(=O)c2cc3cc(Oc4nccnc4OCC(F)F)ccn3n2)CCS(=O)(=O)CC1 [Example 9, 5-((3-(2,2-Difluoroethoxy)pyrazin-2-yl)oxy)-N-(4-methyl-1,1-dioxidotetrahydro-2H-thiopyran-4-yl)pyrazolo[1,5-a]pyridine-2-carboxamide] | 2.3 nM
CC1(NC(=O)c2cc3cc(Oc4ncc(F)cc4OC4CC4)ccn3n2)CCS(=O)(=O)CC1 [Example 10, 5-((3-Cyclopropoxy-5-fluoropyridin-2-yl)oxy)-N-(4-methyl-1,1-dioxidotetrahydro-2H-thiopyran-4-yl)pyrazolo[1,5-a]pyridine-2-carboxamide] | 85 nM
CC1(NC(=O)c2cc3cc(Oc4ncc(F)cc4OCC(F)F)ccn3n2)CS(=O)(=O)C1 [Example 11, 5-((3-(2,2-Difluoroethoxy)-5-fluoropyridin-2-yl)oxy)-N-(3-methyl-1,1-dioxidothietan-3-yl)pyrazolo[1,5-a]pyridine-2-carboxamide] | 2.5 nM
CC1(NC(=O)c2cc3cc(Oc4ncc(F)cc4OC4CC4)ccn3n2)CS(=O)(=O)C1 [Example 12, 5-((3-Cyclopropoxy-5-fluoropyridin-2-yl)oxy)-N-(3-methyl-1,1-dioxidothietan-3-yl)pyrazolo[1,5-a]pyridine-2-carboxamide] | 1800 nM
CC1(NC(=O)c2cc3cc(Oc4nccnc4OCC(F)(F)F)ccn3n2)CCS(=O)(=O)CC1 [Example 13, N-(4-Methyl-1,1-dioxidotetrahydro-2H-thiopyran-4-yl)-5-((3-(2,2,2-trifluoroethoxy)pyrazin-2-yl)oxy)pyrazolo[1,5-a]pyridine-2-carboxamide] | 17 nM
CC1(NC(=O)c2cc3cc(Oc4ncc(Cl)cc4OCC(F)(F)F)ccn3n2)CS(=O)(=O)C1 [Example 15, 5-((5-Chloro-3-(2,2,2-trifluoroethoxy)pyridin-2-yl)oxy)-N-(3-methyl-1,1-dioxidothietan-3-yl)pyrazolo[1,5-a]pyridine-2-carboxamide] | 2.5 nM

Other lines, results leading:

IC50 | SMILES
228 nM | CC1(NC(=O)c2cc3cc(Oc4ncc(C(O)C5CC5)cc4OCC(F)(F)F)ccn3n2)CCS(=O)(=O)CC1 (single isomer, unassigned) [Example 43a, 5-((5-(Cyclopropyl(hydroxy)methyl)-3-(2,2,2-trifluoroethoxy)pyridin-2-yl)oxy)-N-(4-methyl-1,1-dioxidotetrahydro-2H-thiopyran-4-yl)pyrazolo[1,5-a]pyridine-2-carboxamide]
> 9990 nM | CC1(NC(=O)c2cc3cc(Oc4ncc(C(O)C5CC5)cc4OCC(F)(F)F)ccn3n2)CCS(=O)(=O)CC1 (single isomer, unassigned) [Example 43b, 5-((5-(Cyclopropyl(hydroxy)methyl)-3-(2,2,2-trifluoroethoxy)pyridin-2-yl)oxy)-N-(4-methyl-1,1-dioxidotetrahydro-2H-thiopyran-4-yl)pyrazolo[1,5-a]pyridine-2-carboxamide]
111 nM | CC(O)c1cnc(Oc2ccn3nc(C(=O)NC4(C)CCS(=O)(=O)CC4)cc3c2)c(OCC(F)(F)F)c1 (single isomer, unassigned) [Example 44a, 5-((5-(1-Hydroxyethyl)-3-(2,2,2-trifluoroethoxy)pyridin-2-yl)oxy)-N-(4-methyl-1,1-dioxidotetrahydro-2H-thiopyran-4-yl)pyrazolo[1,5-a]pyridine-2-carboxamide]
332 nM | CC(O)c1cnc(Oc2ccn3nc(C(=O)NC4(C)CCS(=O)(=O)CC4)cc3c2)c(OCC(F)(F)F)c1 (single isomer, unassigned) [Example 44b, 5-((5-(1-Hydroxyethyl)-3-(2,2,2-trifluoroethoxy)pyridin-2-yl)oxy)-N-(4-methyl-1,1-dioxidotetrahydro-2H-thiopyran-4-yl)pyrazolo[1,5-a]pyridine-2-carboxamide]
> 9990 nM | CC1(NC(=O)c2cc3cc(Oc4ncc(C(O)C(F)(F)F)cc4OCC(F)(F)F)ccn3n2)CS(=O)(=O)C1 (single isomer, unassigned) [Example 45a, N-(3-Methyl-1,1-dioxidothietan-3-yl)-5-((5-(2,2,2-trifluoro-1-hydroxyethyl)-3-(2,2,2-trifluoroethoxy)pyridin-2-yl)oxy)pyrazolo[1,5-a]pyridine-2-carboxamide]
1560 nM | CC1(NC(=O)c2cc3cc(Oc4ncc(C(O)C(F)(F)F)cc4OCC(F)(F)F)ccn3n2)CS(=O)(=O)C1 (single isomer, unassigned) [Example 45b, N-(3-Methyl-1,1-dioxidothietan-3-yl)-5-((5-(2,2,2-trifluoro-1-hydroxyethyl)-3-(2,2,2-trifluoroethoxy)pyridin-2-yl)oxy)pyrazolo[1,5-a]pyridine-2-carboxamide]
1590 nM | CC(O)c1c(C(=O)NC2(C)CCS(=O)(=O)CC2)nn2ccc(Oc3ncccc3OCC(F)(F)F)cc12 (single isomer, unassigned) [Example 52a, 3-(1-Hydroxyethyl)-N-(4-methyl-1,1-dioxidotetrahydro-2H-thiopyran-4-yl)-5-((3-(2,2,2-trifluoroethoxy)pyridin-2-yl)oxy)pyrazolo[1,5-a]pyridine-2-carboxamide]
333 nM | CC(O)c1c(C(=O)NC2(C)CCS(=O)(=O)CC2)nn2ccc(Oc3ncccc3OCC(F)(F)F)cc12 (single isomer, unassigned) [Example 52b, 3-(1-Hydroxyethyl)-N-(4-methyl-1,1-dioxidotetrahydro-2H-thiopyran-4-yl)-5-((3-(2,2,2-trifluoroethoxy)pyridin-2-yl)oxy)pyrazolo[1,5-a]pyridine-2-carboxamide]
